The test deals with T1, PD-1/PD-L1 (Homo sapiens, UniProt Q9NZQ7).
T1 construct: Recombinant human PD-L1 protein (19-238) with a His-tag at the C-terminus; purchased AcroBiosystems PD1-H5229 (PD-L1); PD1-H5257 (PD-1)
The test is described as follows: PD-1/PD-L1 homogenous time-resolved fluorescence (HTRF) binding assay. Conditions: recombinant human PD-L1 (19-238) His-tag / human PD-1 (25-167) Fc tag. The procedure: Resolved Fluorescence (HTRF) Binding Assay
The assays were conducted in a standard black 384-well polystyrene plate with a final volume of 20 μL. Inhibitors were first serially diluted in DMSO and then added to the plate wells before the addition of other reaction components. The final concentration of DMSO in the assay was 1%. The assays were carried out at 25° C. in the PBS buffer (pH 7.4) with 0.05% Tween-20 and 0.1% BSA. Recombinant human PD-L1 protein (19-238) with a His-tag at the C-terminus was purchased from AcroBiosy stems (PD1-H5229). Recombinant human PD-1 protein (25-167) with Fc tag at the C-terminus was also purchased from AcroBiosystems (PD1-H5257). PD-L1 and PD-1 proteins were diluted in the assay buffer and 10 μL was added to the plate well. Plates were centrifuged and proteins were preincubated with inhibitors for 40 min. The incubation was followed by the addition of […] of HTRF detection buffer supplemented with Europium cryptate-labeled anti-human IgG (PerkinElmer-AD0212) specific for Fc and anti-His antibody conjugated to SureLight®-Allophycocyanin (APC, PerkinElmer-AD0059H). After centrifugation, the plate was incubated at 25° C. for 60 min. Before reading on a PHERAstar FS plate reader (665 nm/620 nm ratio). Final concentrations in the assay were […] PD1, 10 nM PD-L1, 1 nM europium anti-human IgG and 20 nM anti-His-Allophycocyanin. IC50 determination was performed by fitting the curve of percent control activity versus the log of the inhibitor concentration using the GraphPad Prism 5.0 software.
Data obtained for the Example compounds using the PD-1/PD-L1 homogenous time-resolved fluorescence (HTRF) binding assay described in Example A is provided in Table 4.
For orientation: Time-resolved FRET reads energy transfer from a long-lived donor to a nearby acceptor.

T1 sequence (Q9NZQ7 19-238): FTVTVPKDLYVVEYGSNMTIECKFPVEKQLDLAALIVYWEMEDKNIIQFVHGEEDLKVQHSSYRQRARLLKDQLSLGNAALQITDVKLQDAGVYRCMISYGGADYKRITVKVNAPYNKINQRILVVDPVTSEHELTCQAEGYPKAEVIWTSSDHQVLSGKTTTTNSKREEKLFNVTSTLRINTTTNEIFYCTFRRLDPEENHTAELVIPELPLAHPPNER

A word on the IC50: it is the concentration at which inhibition is half-maximal. For `Cc1c(-c2cccc(N(C)C(=O)c3nc4ccc(N)cc4s3)c2C)cccc1N(C)C(=O)c1nc2c(s1)CNCC2` [Example 21, N-(3′-(6-amino-N-methylbenzo[d]thiazole-2-carboxamido)-2,2′-dimethyl-[1,1′-biphenyl]-3-yl)-N-methyl-4,5,6,7-tetrahydrothiazolo[5,4-c]pyridine-2-carboxamide], the IC50 (class symbols) was in the range of 100 to 200 nM.
Same read-out and setting: under `N#Cc1c(NC(=O)c2cn3c(n2)CNCC3)cccc1-c1cccc(NC(=O)c2cn3c(n2)CNCC3)c1C#N` [Example 40, N,N′-(2,2′-dicyano-[1,1′-biphenyl]-3,3′-diyl)bis(5,6,7,8-tetrahydroimidazo[1,2-a]pyrazine-2-carboxamide)] stands below 25 nM.
On the same count and under the same terms, then `Cc1c(Nc2nccc3cc(CNCC(=O)N(C)C)cnc23)cccc1-c1cccc(Nc2nccc3cc(CNCC(F)(F)F)cnc23)c1C` [Example 146, 2-(((8-((2,2′-dimethyl-3′-((3-(((2,2,2-trifluoroethyl)amino)methyl)-1,7-naphthyridin-8-yl)amino)-[1,1′-biphenyl]-3-yl)amino)-1,7-naphthyridin-3-yl)methyl)amino)-N,N-dimethylacetamide], with below 25 nM.
On the same count and under the same terms, under `CN(CCN1CCc2nc(C(=O)N3CCc4c(-c5cccc6c5CCN6C(=O)c5nc6c(s5)CN(CCN(C)S(C)(=O)=O)CC6)cccc43)sc2C1)S(C)(=O)=O` [Example 118, N,N′-((([4,4′-biindoline]-1,1′-dicarbonyl)bis(6,7-dihydrothiazolo[5,4-c]pyridine-2,5(4H)-diyl))bis(ethane-2,1-diyl))bis(N-methylmethanesulfonamide)] stands below 25 nM.
Turning to `CCOC(=O)CNC(C)c1cnc(C(=O)Nc2cccc(-c3cccc(NC(=O)c4cnc(C(C)NCC(=O)OCC)cn4)c3C)c2C)cn1` (stereo not shown) [Example 179, diethyl 2,2′-((((((2,2′-dimethyl-[1,1′-biphenyl]-3,3′-diyl)bis(azanediyl))bis(carbonyl))bis(pyrazine-5,2-diyl))bis(ethane-1,1-diyl))bis(azanediyl))diacetate], the IC50 (class symbols) is 25 to 100 nM.
`COC(=O)CN1CCc2nc(C(=O)N3CCc4c(-c5cccc6c5CCN6C(=O)c5nc6c(s5)CN(CC(=O)OC)CC6)cccc43)sc2C1` [Example 102, dimethyl 2,2′-(([4,4′-biindoline]-1,1′-dicarbonyl)bis(6,7-dihydrothiazolo[5,4-c]pyridine-2,5(4H)-diyl))diacetate]: the IC50 (class symbols) was below 25 nM.
Still for that read-out and setting: under `O=C(c1nc2c(s1)CN(CC(F)(F)F)CC2)N1CCc2c(-c3cccc4c3CCN4C(=O)c3nc4c(s3)CN(CC(F)(F)F)CC4)cccc21` [Example 84, [4,4′-biindoline]-1,1′-diylbis((5-(2,2,2-trifluoroethyl)-4,5,6,7-tetrahydrothiazolo[5,4-c]pyridin-2-yl)methanone)] stands 25 to 100 nM; under `Cc1nc(C(=O)Nc2cccc(-c3cccc(NC(=O)c4nc(C)c(CNCCO)s4)c3C)c2C)sc1CNCCO` [Example 51, N,N′-(2,2′-dimethylbiphenyl-3,3′-diyl)bis(5-((2-hydroxyethylamino)methyl)-4-methylthiazole-2-carboxamide)], below 25 nM; under `Cc1c(NC(=O)c2nnc([C@H](C)N3CCCC[C@H]3C(=O)O)o2)cccc1-c1cccc(NC(=O)c2nnc([C@H](C)N3CCCC[C@H]3C(=O)O)o2)c1C` [Example 16, (2S,2'S)-1,1′-((1S,1'S)-((((2,2′-dimethyl-[1,1′-biphenyl]-3,3′-diyl)bis(azanediyl))bis(carbonyl))bis(1,3,4-oxadiazole-5,2-diyl))bis(ethane-1,1-diyl))bis(piperidine-2-carboxylic acid)], below 25 nM.
As to `Cc1c(Nc2nccc3cc(CNCC(=O)O)cnc23)cccc1-c1cccc2c1CCN2C(=O)C1=NC2CCN(CCC(=O)O)CC2S1` (stereo not shown) [Example 161, 3-(2-(4-(3-((3-(((carboxymethyl)amino)methyl)-1,7-naphthyridin-8-yl)amino)-2-methylphenyl)indoline-1-carbonyl)-3a,6,7,7a-tetrahydrothiazolo[5,4-c]pyridin-5(4H)-yl)propanoic acid], the IC50 (class symbols) is below 25 nM.
Still for that read-out and setting: then `Cc1oc(=O)oc1COC(=O)N1CCc2nc(C(=O)Nc3cccc(-c4cccc(NC(=O)c5ccc6c(n5)CCN(C(=O)OCc5oc(=O)oc5C)C6)c4C)c3C)ccc2C1` [Example 184, bis((5-methyl-2-oxo-1,3-dioxol-4-yl)methyl) 2,2′-(((2,2′-dimethyl-[1,1′-biphenyl]-3,3′-diyl)bis(azanediyl))bis(carbonyl))bis(7,8-dihydro-1,6-naphthyridine-6(5H)-carboxylate)], with above 200 nM; and `Cc1c(Nc2nccc3cc(CNCCO)cnc23)cccc1-c1cccc(Nc2nccc3cc(NCCO)cnc23)c1C` [Example 6, 2-(((8-((3′-((3-((2-hydroxyethyl)amino)-1,7-naphthyridin-8-yl)amino)-2,2′-dimethyl-[1,1′-biphenyl]-3-yl)amino)-1,7-naphthyridin-3-yl)methyl)amino)ethan-1-ol], with below 25 nM.
On the same count and under the same terms, then `Cc1nc(C(=O)Nc2cccc(-c3cccc4c3CCN4C(=O)c3nc(C)c(CN4CCCC[C@H]4C(=O)O)s3)c2)sc1CN1CCCC[C@H]1C(=O)O` [Example 62, (S)-1-((2-(3-(1-(5-(((S)-2-carboxypiperidin-1-yl)methyl)-4-methylthiazole-2-carbonyl)indolin-4-yl)phenylcarbamoyl)-4-methylthiazol-5-yl)methyl)piperidine-2-carboxylic acid], with below 25 nM; and `Cc1c(NC(=O)c2cn3c(n2)CNCC3)cccc1-c1cccc(NC(=O)c2cc3c(s2)CCNC3)c1C` [Example 35, N-(2,2′-dimethyl-3′-(5,6,7,8-tetrahydroimidazo[1,2-a]pyrazine-2-carboxamido)-[1,1′-biphenyl]-3-yl)-4,5,6,7-tetrahydrothieno[3,2-c]pyridine-2-carboxamide], with below 25 nM; and `O=C(Nc1cccc(-c2cccc(NC(=O)c3ncc(CN[C@H](C(=O)O)C4CCOCC4)s3)c2Cl)c1Cl)c1ncc(CN[C@H](C(=O)O)C2CCOCC2)s1` [Example 71, (2S,2'S)-2,2′-((((((2,2′-dichloro-[1,1′-biphenyl]-3,3′-diyl)bis(azanediyl))bis(carbonyl))bis(thiazole-2,5-diyl))bis(methylene))bis(azanediyl))bis(2-(tetrahydro-2H-pyran-4-yl)acetic acid)], with below 25 nM.
As to `Cc1c(NC(=O)c2nnc(C3(NC(=N)N)CCC3)s2)cccc1-c1cccc(NC(=O)c2nnc(C3(NC(=N)N)CCC3)s2)c1C` [Example 38, N,N′-(2,2′-dimethyl-[1,1′-biphenyl]-3,3′-diyl)bis(5-(1-guanidinocyclobutyl)-1,3,4-thiadiazole-2-carboxamide)], under “class symbols”, the IC50 is below 25 nM.
Consider `Cc1c(NC(=O)c2nnc(C3(N)CCC3)s2)cccc1-c1cccc(NC(=O)c2nnc(C3(N)CCC3)s2)c1C` [Example 27, N,N′-(2,2′-dimethyl-[1,1′-biphenyl]-3,3′-diyl)bis(5-(1-aminocyclobutyl)-1,3,4-thiadiazole-2-carboxamide)], for which the IC50 (numeric values) came to 3.13 nM.
As to `COC(=O)N[C@H](C(=O)N1CCc2nc(C(=O)N3CCc4c(-c5cccc6c5CCN6C(=O)c5ccc6c(n5)CCN(C(=O)[C@@H](NC(=O)OC)C(C)C)C6)cccc43)ccc2C1)C(C)C` [Example 168, dimethyl ((2S,2'S)-(([4,4′-biindoline]-1,1′-dicarbonyl)bis(7,8-dihydro-1,6-naphthyridine-2,6(5H)-diyl))bis(3-methyl-1-oxobutane-1,2-diyl))dicarbamate], under “class symbols”, the IC50 was below 25 nM.
Same read-out and setting: under `O=C(c1nc2c(s1)CN(CC(F)F)CC2)N1CCc2c(-c3cccc4c3CCN4C(=O)c3nc4c(s3)CN(CC(F)F)CC4)cccc21` [Example 85, [4,4′-biindoline]-1,1′-diylbis((5-(2,2-difluoroethyl)-4,5,6,7-tetrahydrothiazolo[5,4-c]pyridin-2-yl)methanone)] stands 25 to 100 nM; under `N#Cc1c(NC(=O)c2nc3c(s2)CNCC3)cccc1-c1cccc(NC(=O)c2nc3c(s2)CNCC3)c1C#N` [Example 74, N,N′-(2,2′-dicyano-[1,1′-biphenyl]-3,3′-diyl)bis(4,5,6,7-tetrahydrothiazolo[5,4-c]pyridine-2-carboxamide)], below 25 nM.
For `Cc1c(-c2cccc(N(C)C(=O)c3cc4c(s3)CCNC4)c2C)cccc1N(C)C(=O)c1cn2c(n1)CNCC2` [Example 34, N-(2,2′-dimethyl-3′-(N-methyl-5,6,7,8-tetrahydroimidazo[1,2-a]pyrazine-2-carboxamido)-[1,1′-biphenyl]-3-yl)-N-methyl-4,5,6,7-tetrahydrothieno[3,2-c]pyridine-2-carboxamide], the IC50 (class symbols) is below 25 nM.
`Cc1c(Nc2nccc3cc(CNCC(N)=O)cnc23)cccc1-c1cccc(Nc2nccc3cc(CNCC(N)=O)cnc23)c1C` [Example 144, 2,2′-(((((2,2′-dimethyl-[1,1′-biphenyl]-3,3′-diyl)bis(azanediyl))bis(1,7-naphthyridine-8,3-diyl))bis(methylene))bis(azanediyl))diacetamide]: the IC50 (class symbols) was below 25 nM.

The record behind these values is patent US20210040118A1, “IMMUNOMODULATORS, COMPOSITIONS AND METHODS THEREOF” (BETTA PHARMACEUTICALS CO., LTD, priority 2018, published 2021).
